Laboratory results as given in patent EP4785942A1, “NOVEL COMBINATION THERAPY FOR BLOOD CANCER” (Carna Biosciences, Inc., priority 2023, dated 2025).
Where two headings read alike, the source gives them in different places.

Assays:
Type in all cases: cell-based
MOLM-14 = assay: Cell growth suppression test in monotherapy (resazurin); conditions: Homo sapiens, read-out: Cell growth suppression activity IC50
Procedure: (§1) A human acute monocytic leukemia cell line (THP-1), a human acute myeloid leukemia cell line (MV-4-11), a human acute monocytic leukemia cell line (MOLM-14), and a human erythroleukemia cell line (TF-1) were cultured in a 5% CO2 incubator using a RPMI1640 medium (Roswell Park Memorial Institute medium, nacalai tesque) comprising 10% Fetal bovine serum (Thermo Scientific, SIGMA-ALDRICH, or Cytiva) and 1% penicillin/streptomycin (nacalai tesque).
(§2) THP-1 cells and MV-4-11 cells at 2×10^4 cells/well, and MOLM-14 cells and TF-1 cells at 5×10^3 cells/well were each seeded to a 96 well plate (cell plate), and thereto was added a test compound diluted with the medium so that the final concentration thereof would be 3 nM to 30 µM (final DMSO concentration: 0.3%). After the resulting mixture was cultured for 72 hours, a resazurin reagent (nacalai tesque) was added thereto. After 3 hours, a fluorescence at an excitation wavelength of 560 nm and a fluorescence wavelength of 590 nm was measured, and each IC50 value of the inhibitory activity was calculated by a criterion in which a well without the compound and without the cells was set to be 100%, and a well without the compound and with cells was set to be 0%.

MV-4-11 = assay: as above; conditions: Homo sapiens, read-out: Cell growth suppression activity IC50
Procedure: as §1, §2

TF-1 = assay: as above; conditions: Homo sapiens, read-out: Cell growth suppression activity IC50
Procedure: as §1, §2

THP-1 = assay: as above; conditions: Homo sapiens, read-out: Cell growth suppression activity IC50
Procedure: as §1, §2

THP-1 cells = assay: Dose-response test of DNA methyltransferase inhibitor in the presence of compound (I); conditions: Homo sapiens, read-out: THP-1 cell growth suppression activity azacitidine IC50 (converted)
Procedure: as §2
Changes in the IC50 value of a DNA methyltransferase inhibitor (azacitidine) in the presence of the compound (I) were investigated.

[1] = MOLM-14 cells, monotherapy, cultured for 72 hours
[2] = MV4-11, MV-4-11 cells, monotherapy, cultured for 72 hours
[3] = TF-1 cells, monotherapy, cultured for 72 hours
[4] = THP-1 cells, monotherapy, cultured for 72 hours

**Q.** For `Nc1ncn([C@@H]2O[C@H](CO)[C@@H](O)[C@H]2O)c(=O)n1` [Azacitidine, azacitidine], which IC50 (MOLM-14; [1]) is on record?
**A.** Its IC50 is 2850 nM.

**Q.** What about the IC50 (MV-4-11; [2]) of the same compound?
**A.** The IC50 was 1200 nM.

**Q.** And the IC50 (TF-1; [3])?
**A.** The IC50 was 1920 nM.

**Q.** What about the IC50 (THP-1; [4]) of the same compound?
**A.** The IC50 was 7.39 µM.

**Q.** What about the IC50 (THP-1 cells; THP-1, Concentration of compound (I) 0 µM (DMSO-added control)) of the same compound?
**A.** Its IC50 is 6.93 µM.

**Q.** And the IC50 (THP-1 cells; THP-1, Concentration of compound (I) 3 µM)?
**A.** The IC50 was 2.03 µM.

**Q.** `CCOC(=O)C1=C(NN2CCN(CC(F)(F)F)CC2)O/C(=C\c2c[nH]c3ncccc23)C1=O` [Compound (I), ethyl 5-[(1H-pyrrolo[2,3-b]pyridin-3-yl)methylene]-4-oxo-2-{[4-(2,2,2-trifluoroethyl)piperazinyl]amino}-4,5-dihydrofuran-3-carboxylate] was tested. Which IC50 (MOLM-14; [1]) did it give?
**A.** Its IC50 is 160 nM.

**Q.** What about the IC50 (MV-4-11; [2]) of the same compound?
**A.** The IC50 was 190 nM.

**Q.** What about the IC50 (TF-1; [3]) of the same compound?
**A.** Its IC50 is 340 nM.

**Q.** And the IC50 (THP-1; [4])?
**A.** Its IC50 is 4.07 µM.

**Q.** For `Nc1ncn([C@H]2C[C@H](O)[C@@H](CO)O2)c(=O)n1` [Decitabine, decitabine], which IC50 (MOLM-14; MOLM-14, 72 h) is on record?
**A.** Its IC50 is 160 nM.

**Q.** What about the IC50 (MV-4-11; MV4-11, 72 h) of the same compound?
**A.** The IC50 was 540 nM.

**Q.** What about the IC50 (TF-1; TF-1, 72 h) of the same compound?
**A.** Its IC50 is 120 nM.

**Q.** And the IC50 (THP-1; THP-1, 72 h)?
**A.** The IC50 was over 30 µM.
